Results taken from paper PMC4172859, “Positive Darwinian selection is a driving force for the diversification of terpenoid biosynthesis in the genus Oryza” (BMC Plant Biology, 2014).

Assays:
Experiment in all cases: SPME GC-MS product analysis, recombinant E. coli extract
Format in all cases: biochemical
Conditions in all cases: 10 uM FPP, 10 mM MgCl2, pH 7.0, 30 °C; mere turnover
ObTPS1 [1] = target: T1, ObTPS1 (Oryza barthii, UniProt A0A0D3GW75)
T1 construct: full-length cDNA in pEXP5-CT/TOPO, E. coli BL21 Codon Plus, desalted extract
T1 sequence (A0A0D3GW75 1-575): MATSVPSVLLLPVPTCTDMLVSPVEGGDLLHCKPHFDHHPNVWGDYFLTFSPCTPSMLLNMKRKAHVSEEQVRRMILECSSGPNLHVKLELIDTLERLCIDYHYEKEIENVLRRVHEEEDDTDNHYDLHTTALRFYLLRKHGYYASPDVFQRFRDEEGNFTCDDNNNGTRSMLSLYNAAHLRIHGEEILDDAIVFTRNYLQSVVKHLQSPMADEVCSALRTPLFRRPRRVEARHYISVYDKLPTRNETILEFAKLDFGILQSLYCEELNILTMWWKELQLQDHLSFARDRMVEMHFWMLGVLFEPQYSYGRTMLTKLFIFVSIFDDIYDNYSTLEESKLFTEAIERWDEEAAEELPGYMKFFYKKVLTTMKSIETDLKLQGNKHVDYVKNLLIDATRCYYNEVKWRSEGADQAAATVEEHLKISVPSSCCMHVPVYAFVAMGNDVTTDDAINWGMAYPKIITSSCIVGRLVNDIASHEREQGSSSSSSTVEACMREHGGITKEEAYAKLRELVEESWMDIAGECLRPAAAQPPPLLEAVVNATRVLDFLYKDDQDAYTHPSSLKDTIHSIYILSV

ObTPS1 [2] = target: T2, ObTPS1 (Oryza barthii, UniProt A0A0D3GW75, F318L/C429G/V433I)
T2 construct: full-length cDNA in pEXP5-CT/TOPO, E. coli BL21 Codon Plus, desalted extract
T2 sequence (A0A0D3GW75 entry or part of it F318L/C429G/V433I): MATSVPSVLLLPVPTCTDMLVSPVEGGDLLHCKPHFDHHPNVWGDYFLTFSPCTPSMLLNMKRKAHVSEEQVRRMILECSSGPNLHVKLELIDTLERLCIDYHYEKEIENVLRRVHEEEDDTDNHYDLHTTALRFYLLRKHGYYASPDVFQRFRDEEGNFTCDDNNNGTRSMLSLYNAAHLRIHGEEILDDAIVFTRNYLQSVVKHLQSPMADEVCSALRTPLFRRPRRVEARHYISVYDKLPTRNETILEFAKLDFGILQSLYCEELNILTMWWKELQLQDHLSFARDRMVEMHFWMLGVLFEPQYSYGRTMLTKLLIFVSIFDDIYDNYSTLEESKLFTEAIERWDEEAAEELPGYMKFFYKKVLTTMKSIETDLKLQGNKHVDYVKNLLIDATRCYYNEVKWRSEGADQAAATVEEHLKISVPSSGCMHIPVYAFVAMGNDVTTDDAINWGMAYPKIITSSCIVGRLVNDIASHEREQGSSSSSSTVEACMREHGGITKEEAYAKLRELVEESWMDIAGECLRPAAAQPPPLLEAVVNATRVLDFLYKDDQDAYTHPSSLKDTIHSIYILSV

[3] = target: T3, OryzaTPS1 (O. glumaepatula) (Oryza glumipatula, UniProt A0A076L503)
T3 construct: full-length cDNA in pEXP5-CT/TOPO, E. coli BL21 Codon Plus, desalted extract
T3 sequence (A0A076L503 1-574): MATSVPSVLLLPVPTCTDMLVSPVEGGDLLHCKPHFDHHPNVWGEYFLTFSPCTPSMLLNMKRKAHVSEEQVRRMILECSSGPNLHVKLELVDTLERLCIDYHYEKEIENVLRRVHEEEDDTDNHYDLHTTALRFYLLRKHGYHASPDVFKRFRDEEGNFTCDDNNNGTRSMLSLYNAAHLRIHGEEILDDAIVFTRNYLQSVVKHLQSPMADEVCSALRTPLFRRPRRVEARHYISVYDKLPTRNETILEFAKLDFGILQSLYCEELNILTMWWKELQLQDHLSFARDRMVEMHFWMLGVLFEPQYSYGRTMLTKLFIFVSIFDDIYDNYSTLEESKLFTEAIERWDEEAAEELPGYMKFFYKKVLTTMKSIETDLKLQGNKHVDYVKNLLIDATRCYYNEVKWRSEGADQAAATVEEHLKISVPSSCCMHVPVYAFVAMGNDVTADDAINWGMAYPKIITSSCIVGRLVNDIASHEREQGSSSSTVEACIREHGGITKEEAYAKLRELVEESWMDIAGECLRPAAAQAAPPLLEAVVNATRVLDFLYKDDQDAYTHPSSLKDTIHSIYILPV

OryzaTPS1 (O. nivara) = target: T4, OryzaTPS1 (O. nivara) (Oryza nivara, UniProt A0A076L4Z9)
T4 construct: full-length cDNA in pEXP5-CT/TOPO, E. coli BL21 Codon Plus, desalted extract
T4 sequence (A0A076L4Z9 1-575): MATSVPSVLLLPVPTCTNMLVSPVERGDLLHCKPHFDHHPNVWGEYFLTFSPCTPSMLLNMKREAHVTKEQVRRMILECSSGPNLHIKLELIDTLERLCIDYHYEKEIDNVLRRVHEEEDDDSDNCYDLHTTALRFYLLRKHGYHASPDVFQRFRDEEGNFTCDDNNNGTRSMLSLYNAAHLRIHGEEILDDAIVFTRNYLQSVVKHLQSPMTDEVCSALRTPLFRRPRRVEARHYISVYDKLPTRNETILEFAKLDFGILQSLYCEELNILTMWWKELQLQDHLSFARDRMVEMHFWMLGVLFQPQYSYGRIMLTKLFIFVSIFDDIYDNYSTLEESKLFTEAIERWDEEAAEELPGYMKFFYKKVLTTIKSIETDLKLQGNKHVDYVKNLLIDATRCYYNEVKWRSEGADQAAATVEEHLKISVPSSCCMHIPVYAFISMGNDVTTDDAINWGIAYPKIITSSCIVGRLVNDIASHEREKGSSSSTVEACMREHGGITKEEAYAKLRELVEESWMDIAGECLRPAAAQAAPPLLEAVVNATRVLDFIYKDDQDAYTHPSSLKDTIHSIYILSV

[4] = target: T5, OryzaTPS1 (O. glaberrima) (Oryza glaberrima, UniProt I1QFJ1)
T5 construct: gene LOC127781497; full-length cDNA in pEXP5-CT/TOPO, E. coli BL21 Codon Plus, desalted extract
T5 sequence (I1QFJ1 1-575): T1 sequence (A0A0D3GW75 1-575)

CC(C)=CCC/C(C)=C/CC/C(C)=C/COP(=O)(O)OP(=O)(O)O [(E, E)-farnesyl diphosphate]
SPME GC-MS product analysis, recombinant E. coli extract (ObTPS1 [1]): The enzymes were expressed in E. coli, extracted, and incubated with the substrate (E, E)-farnesyl diphosphate | SPME GC-MS product analysis, recombinant E. coli extract (ObTPS1 [2]): The triple mutant ObTPS1-F318L + C429G + V433I produced comparable amounts of germacrene A, germacrene D | SPME GC-MS product analysis, recombinant E. coli extract [3]: All these proteins were biochemically active | SPME GC-MS product analysis, recombinant E. coli extract (OryzaTPS1 (O. nivara)): All these proteins were biochemically active | SPME GC-MS product analysis, recombinant E. coli extract [4]: All these proteins were biochemically active
